Where two headings read alike, the source gives them in different places. Marks after values point to notes of the source that are not given here.

The nature of data set [1]: Pharmacokinetic study of GT DcNP vs CrEL drug combination in mice (Example 1). Particulars: GT 50/5 mg/kg IV; for AUC(0-t) / Cmax / t1/2apparent: plasma; for AUC(0-t): iv. The class given is in vivo, BALB/c mice. The protocol:
Mice were administered with either a CrEL drug combination or GT DcNP intravenously with doses of 50/5 mg/kg GT. […] Each group had three animals and each animal was bled once only. Retro-orbital blood collection in this study was a terminal procedure and animals were under anesthesia at the time of bleeding. After blood collection, mice were euthanized by CO2 overdose followed by cervical dislocation as the secondary method of euthanasia. Drugs in plasma were extracted and analyzed by LC-MS/MS as described below.
A liquid-liquid extraction was used to extract drugs from plasma or tissue homogenates. […] Samples were spiked by internal standards (see below) followed by the addition of acetonitrile. […] The dried samples were reconstituted in 20% methanol and 80% water in 50 μL.
Drugs were quantified by a Shimadzu HPLC system coupled to a 3200 QTRAP mass spectrometer (Applied Biosystems, Grand Island, N.Y.). The HPLC system consisted of two Shimadzu LC-20A pumps, a DGU-20A5 degasser, and a Shimadzu SIL-20AC HT autosampler. The mass spectrometer was equipped with an electrospray ionization (ESI) TurbolonSpray source. The system was operated with Analyst software, version 1.5.2 (ABSciex, Framingham, Mass.).
Chromatographic separation of drugs was achieved using a Synergi column (100×2.0 mm; 4-μm particle size) with an inline C8 guard column (4.0×2.0 mm) (Phenomenex, Torrance, Calif.). An ammonium acetate buffer/reagent alcohol gradient was used to separate components. Analytes were monitored using multiple-reaction monitoring for positive ions.

The next data set deals with K-562 cells. Description: AlamarBlue cell growth inhibition, K-562. In kind it is cell-based. To be noted: Homo sapiens; for EC50: 120 h, K562 (Bcl-2 −, BTK +), 5 days, read-out: Inhibitory effects (EC50); for IC50: K562, 120 h, K-562, five days, read-out: IC50 (sensitivity). The protocol: (§1) K-562 cells (human leukemia) were purchased from ATCC (Manassas, USA). Additional human leukemic cell lines, MOLT-4 and HL-60, were a generous gift from Carrie Cummings at Fred Hutchinson Cancer Research Center (Seattle, USA). All cells were cultured in Gibco RPMI medium 1640 with Gibco 1% 100×Antibiotic-Antimycotic (Thermo Fisher Scientific, Waltham, USA) and 10% fetal bovine serum. Cells were selected for their different protein expression levels of Bruton's Tyrosine Kinase (BTK) and B Cell Lymphoma 2 (Bcl-2); HL-60 cells express both BTK and Bcl-2, while K-562 and MOLT-4 cells only express BTK and Bcl-2, respectively.
(§2) Each cell line was seeded separately into Costar® Black 96-well Assay Plates (Corning USA). Within 1 hr, varying concentrations of individual free drug (ABT-199 or BGB-3111), a combination of both free drugs (w/w 1:1), or a combination of drugs within DcNP's were added to the cells. Following a 5-day incubation, growth of treated cells was compared to untreated cells, quantified using an AlamarBlue Cell Viability Assay (Thermo Fisher Scientific, Waltham, USA) with a PerkinElmer 1420 Multilabel Counter plate reader. Prism graphing software (GraphPad) was used to analyze the absorbance data and to assess relative cell growth.
(§3) The effects of DcNP formulation on the effectiveness of ABT-199 and BGB-3111 to inhibit cells that express Bcl-2 and BTK targets is shown in Table 6. Three immortalized human cell lines were selected based on their expression of Bcl-2 (B-cell lymphoma 2; target of venetoclax) and BTK (Bruton's tyrosine kinase; target of zanubrutinib). Cell lines were seeded in 96-well plates at 75,000 cells per well. In separate sets of wells, venetoclax and zanubrutinib were incubated with the cells for 5 days individually as free drug, together as free drug, and together as the drug combination nanoformulation. An AlamarBlue assay was performed to determine relative inhibition of cell growth due to drug presence.
For orientation: Resazurin is reduced to fluorescent resorufin, in cell work by metabolically active cells.

The test system of data set [2] is MOLT-4 cells. Description: AlamarBlue cell growth inhibition, MOLT-4. Particulars: Homo sapiens, 120 h; for IC50: MOLT-4, five days, read-out: IC50 (sensitivity); for EC50: Molt-4 (Bcl-2 +, BTK −), 5 days, read-out: Inhibitory effects (EC50). In kind it is cell-based. The protocol:
as §1, §2, §3

For another data set, the system named is HL-60 cells. Description: Leukemic cell uptake of free versus DcNP-associated drug, HL-60. To be noted: up to 4 hours. In kind it is cell-based, human. The protocol: (§4) FIGS. 13A-13D are a series of graphs showing the intracellular drug concentrations following incubation with free or DcNP-bound drug. Three leukemic cell lines were incubated with either free or DcNP-bound drug over four hours, and intracellular drug concentration was measured via LC-MS/MS. Both free drugs show relatively little drug uptake compared to the DcNP formulation. Free drug concentrations are roughly a quarter of the DcNP drug concentrations.
(§5) To quantify drug concentrations (both DcNP-bound and free drug), an extraction protocol was established to quantify venetoclax and zanubrutinib. In short, drug was solubilized by diluting the sample into ethyl acetate, liberating it from either the DcNP lipid matrix, mouse plasma, or both. Following centrifugation to remove organic material, the samples were dried with nitrogen gas, reconstituted in acetonitrile, and loaded onto an LC-MS/MS. Drug concentrations were quantified by comparing sample data with standard curves prepared from untreated mouse plasma spiked with known amounts of drug.
(§6) Separations were carried out on a Synergi column (100×2.0 mm) (Phenomenex, Torrance, USA). A C8 guard column (4.0×2.0 mm) was used (Phenomenex, USA). The separations were done under ambient temperature, and the flow rate was set to 0.55 ml/min. The mobile phase for the separations consisted of buffers A (water with 20 mM ammonium acetate) and B (acetonitrile). The single mobile phase ran for five minutes, and it consisted of 25% buffer A and 75% buffer B.
(§7) HL-60 cells were cultured, counted, and aliquoted into multiple 1.5 mL Eppendorf tubes. A free drug solution of ABT-199 and BGB-3111 (1:1 w/w) was added to half of the tubes, while a DcNP solution of identical drug concentrations was added to the second half of tubes. The cells in the tubes were then allowed to incubate normally. At preselected time points, one incubation tube from each group was removed from the incubator, and the cells inside were washed twice with media to remove external drug and DcNP's. Cells were then lysed with acetonitrile, and drug concentrations were quantified according to the aforementioned extraction and LC-MS/MS protocol.

Data set [3] deals with MOLT-4 cells. As to the kind of experiment: Leukemic cell uptake of free versus DcNP-associated drug, MOLT-4. In kind it is cell-based, human. The protocol:
as §4, §5, §6, §7

Setting [4] is: female, BALB/c, mouse, given in CrEL drug dosage form.
The mark [5] stands for this setting: female, BALB/c, mouse, given in DcNP dosage form.
Where [6] appears, read: HL-60, incubation with free drug (1:1 w/w).
Where [7] appears, read: MOLT-4, incubation with free drug.

In the case of `Nc1ccn([C@@H]2O[C@H](CO)[C@@H](O)C2(F)F)c(=O)n1` [Gemcitabine, 4-amino-1-[(2R,4R,5R)-3,3-difluoro-4-hydroxy-5-(hydroxymethyl)oxolan-2-yl]pyrimidin-2-one], the “increase in Cmax, GT DcNP compared to CrEL” value in data set [1] is given as approximately 10%. For the same compound, the AUC(0-t) is 15300 ng·h/mL in data set [1] (setting [4]) and 868000 ng·h/mL in data set [1] (setting [5]). The Cmax was 165.12^b μg/mL in data set [1] (given in CrEL drug dosage form) and 181.4 µg/mL in data set [1] (given in DcNP dosage form). The values for the t1/2apparent in data set [1] (given in CrEL drug dosage form) and in data set [1] (given in DcNP dosage form) were 1.60 h and 13.72 h, respectively.

On to `CC(=O)O[C@H]1C(=O)[C@@]2(C)[C@H]([C@H](OC(=O)c3ccccc3)[C@]3(O)C[C@H](OC(=O)[C@H](O)[C@@H](NC(=O)c4ccccc4)c4ccccc4)C(C)=C1C3(C)C)[C@]1(OC(C)=O)CO[C@@H]1C[C@@H]2O` [Paclitaxel, [(1S,2S,3R,4S,7R,9S,10S,12R,15S)-4,12-diacetyloxy-15-[(2R,3S)-3-benzamido-2-hydroxy-3-phenylpropanoyl]oxy-1,9-dihydroxy-10,14,17,17-tetramethyl-11-oxo-6-oxatetracyclo[11.3.1.0^3,10.0^4,7]heptadec-13-en-2-yl] benzoate], for which, in data set [1], the “decrease in Cmax, GT DcNP compared to CrEL” value is approximately 21%. Moreover, the Cmax came out at 17.7 µg/mL in data set [1] (female, BALB/c, mouse, given in CrEL drug dosage form, read-out: Cmax) and 13.9 µg/mL in data set [1] (given in DcNP dosage form). Moreover, the AUC(0-t) in data set [1] (setting [4]) is 2490 ng·h/mL; in data set [1] (setting [5]) it was 9810 ng·h/mL. Moreover, the t1/2apparent in data set [1] (given in CrEL drug dosage form) was 1.81 h; in data set [1] (given in DcNP dosage form), 1.97 h.

For the compound `CC1(C)CCC(CN2CCN(c3ccc(C(=O)NS(=O)(=O)c4ccc(NCC5CCOCC5)c([N+](=O)[O-])c4)c(Oc4cnc5[nH]ccc5c4)c3)CC2)=C(c2ccc(Cl)cc2)C1` [Venetoclax, 4-[4-[[2-(4-chlorophenyl)-4,4-dimethylcyclohexen-1-yl]methyl]piperazin-1-yl]-N-[3-nitro-4-(oxan-4-ylmethylamino)phenyl]sulfonyl-2-(1H-pyrrolo[2,3-b]pyridin-5-yloxy)benzamide], the values for the EC50 in the data set on K-562 cells and with MOLT-4 cells [2] were 16 µg/mL and 2 µg/mL, respectively. In addition, the IC50 was 15.9 µg/mL in the data set on K-562 cells and 1.96 µg/mL with MOLT-4 cells [2]. For the same compound, the “peak intracellular drug concentration” value in the data set on HL-60 cells (HL-60, incubation with DcNP's) is given as 674 ng/million cells; in the data set on HL-60 cells (setting [6]), 192 ng/million cells; in the data set with MOLT-4 cells [3] (MOLT-4, incubation with DcNP's), 718 ng/million cells; in the data set with MOLT-4 cells [3] (setting [7]), 176 ng/million cells.

`C=CC(=O)N1CCC([C@@H]2CCNc3c(C(N)=O)c(-c4ccc(Oc5ccccc5)cc4)nn32)CC1` [Zanubrutinib, (7S)-2-(4-phenoxyphenyl)-7-(1-prop-2-enoylpiperidin-4-yl)-4,5,6,7-tetrahydropyrazolo[1,5-a]pyrimidine-3-carboxamide]: the values for the EC50 with K-562 cells and with MOLT-4 cells [2] were 8.4 µg/mL and 4 µg/mL, respectively. For the same compound, the half-maximal inhibitory concentration (IC50) was found to be 8.3 µg/mL with K-562 cells and 4 µg/mL in the data set on MOLT-4 cells [2]. For the same compound, the “peak intracellular drug concentration” value in the data set on HL-60 cells (HL-60, incubation with DcNP's) turned out to be 256 ng/million cells; with HL-60 cells (setting [6]), 69 ng/million cells; in the data set on MOLT-4 cells [3] (MOLT-4, incubation with DcNP's), 208 ng/million cells; in the data set with MOLT-4 cells [3] (setting [7]) it was 42 ng/million cells.

What is called AUC(0-t) is the area under the concentration-time curve up to a stated or last time point. As a reminder, the Cmax is the maximum level reached in the sampled fluid or tissue. What is called EC50 is the concentration needed to bring the measured effect to its halfway point. What is called IC50 is the concentration needed to halve the response being measured.

The record behind these values is patent publication US20230113802A1, “COMPOSITION AND METHOD TO PREPARE LONG-ACTING INJECTABLE SUSPENSION CONTAINING MULTIPLE CANCER DRUGS” (University of Washington, priority 2020, published 2023).
